Measured values from patent US10836732B2, “Compounds for combating arthropods” (priority 2013, dated 2020).

What was measured:
Type in all cases: in vivo
Boophilus microplus [1] = test: Boophilus microplus - injection test (BBOMI Inj); details: 4 μg/animal, injected into engorged adult female cattle ticks, after 7 days
Procedure: (§1) Solvent: dimethyl sulphoxide
(§2) To produce an appropriate active ingredient formulation, 10 mg of active ingredient are mixed with 0.5 ml of solvent and the concentrate is diluted with solvent to the desired concentration.
(§3) 1 μl of the active ingredient solution is injected into the abdomen of 5 engorged adult female cattle ticks (Boophilus microplus). The animals are transferred into dishes and kept in a climate-controlled room.
(§4) Efficacy is assessed after 7 days by laying of fertile eggs. Eggs which are not visibly fertile are stored in a climate-controlled cabinet until the larvae hatch after about 42 days. An efficacy of 100% means that none of the ticks has laid any fertile eggs; 0% means that all the eggs are fertile.

Ctenocephalides felis = Ctenocephalides felis - oral test (CTECFE); details: 20 ppm in citrated cattle blood, adult cat fleas, after 2 days
Procedure: as §1
For the purpose of producing an appropriate active ingredient formulation, 10 mg of active ingredient are mixed with 0.5 ml of dimethyl sulphoxide. Dilution with citrated cattle blood gives the desired concentration.
About 20 unfed adult cat fleas (Ctenocephalides felis) are placed into a chamber which is closed at the top and bottom with gauze. A metal cylinder whose bottom end is closed with parafilm is placed onto the chamber. The cylinder contains the blood/active ingredient preparation, which can be imbibed by the fleas through the parafilm membrane.
After 2 days, the kill in % is determined 100% means that all of the fleas have been killed; 0% means that none of the fleas have been killed.

Rhipicephalus sanguineus = Rhipicephalus sanguineus - in vitro contact tests with adult brown dog ticks; details: 5 μg/cm^2, adult dog ticks, after 48 h
Procedure: For the coating of the test tubes, 9 mg of active ingredient are first dissolved in 1 ml of acetone p.a. and then diluted to the desired concentration with acetone p.a. 250 μl of the solution are distributed homogeneously on the inner walls and base of a 25 ml test tube by turning and rocking on an orbital shaker (rocking rotation at 30 rpm for 2 h). With 900 ppm active ingredient solution and internal surface 44.7 cm^2, given homogeneous distribution, an area-based dose of 5 μg/cm^2 is achieved.
After the solvent has evaporated off, the tubes are populated with 5-10 adult dog ticks (Rhipicephalus sanguineus), sealed with a perforated plastic lid and incubated in a horizontal position in the dark at room temperature and ambient humidity. After 48 h, efficacy is determined To this end, the ticks are knocked to the floor of the tube and incubated on a hotplate at 45-50° C. for not more than 5 min Ticks which remain motionless on the floor or move in such an uncoordinated manner that they are unable to deliberately avoid the heat by climbing upwards are considered to be dead or moribund.
An efficacy of 100% means that all the ticks were dead or moribund. 0% efficacy means that none of the ticks had been harmed.

Amblyomma hebraeum = test: Amblyomma hebaraeum - test (tick nymphs, immersion); details: 100 ppm, tick nymphs immersed one minute, after 42 days
Procedure: as §1
(§5) To produce an appropriate active ingredient formulation, 10 mg of active ingredient are mixed with 0.5 ml of dimethyl sulphoxide, and the concentrate is diluted with water to the desired concentration.
Tick nymphs (Amblyomma hebraeum) are placed into perforated plastic beakers and immersed in the desired concentration for one minute. The ticks are transferred on filter paper into a Petri dish and stored in a climate-controlled cabinet.
After 42 days, the kill in % is determined 100% means that all of the ticks have been killed; 0% means that none of the ticks have been killed.

[2] = tested on: Boophilus microplus Parkhurst strain, SP-resistant; test: Boophilus microplus - dip test; details: 100 ppm, adult engorged female cattle ticks, after 7 days
Procedure: Test animals: cattle ticks (Boophilus microplus) Parkhurst strain, SP-resistant
as §1
10 mg of active ingredient are dissolved in 0.5 ml of dimethyl sulphoxide. For the purpose of producing a suitable formulation, the active ingredient solution is diluted with water to the concentration desired in each case.
This active ingredient formulation is pipetted into tubes. 8-10 adult engorged female cattle ticks (Boophilus microplus) are transferred into a further tube with holes. The tube is immersed into the active ingredient formulation, and all the ticks are completely wetted. After the liquid has run out, the ticks are transferred on filter discs into plastic dishes and stored in a climate-controlled room.
as §4

Boophilus microplus [3] = test: Boophilus microplus - injection test; details: 20 μg/animal, injected into engorged adult female cattle ticks, after 7 days
Procedure: as §1, §2, §3, §4

Lucilia cuprina = Lucilia cuprina - test; details: 100 ppm, L1 larvae, after 2 days
Procedure: as §1, §5
About 20 L1 larvae of the Australian sheep blowfly (Lucilia cuprina) are transferred into a test vessel containing minced horsemeat and the active ingredient preparation of the desired concentration.
After 2 days, the kill in % is determined 100% means that all the larvae have been killed; 0% means that none of the larvae have been killed.

Spodoptera frugiperda = Spodoptera frugiperda - spray test; details: 100 g/ha, maize leaf discs, after 7 days
Procedure: (§6) Solvent: 78.0 parts by weight of acetone
(§7) • 1.5 parts by weight of dimethylformamide Emulsifier: alkylaryl polyglycol ether
(§8) To produce an appropriate active ingredient formulation, 1 part by weight of active ingredient is dissolved using the specified parts by weight of solvent and made up with water containing an emulsifier concentration of 1000 ppm until the desired concentration is attained. To produce further test concentrations, the preparation is diluted with emulsifier-containing water.
Leaf discs of maize (Zea mays) are sprayed with an active ingredient formulation of the desired concentration and, after drying, populated with caterpillars of the armyworm (Spodoptera frugiperda).
After 7 days, efficacy in % is determined. 100% means that all the caterpillars have been killed; 0% means that no caterpillars have been killed.

Tetranychus urticae = Tetranychus urticae - spray test, OP-resistant; details: 100 g/ha, bean leaf discs, after 6 days
Procedure: as §6, §7, §8
Discs of bean leaves (Phaseolus vulgaris) infested by all stages of the greenhouse red spider mite (Tetranychus urticae) are sprayed with an active ingredient formulation of the desired concentration.
After 6 days, efficacy in % is determined 100% means that all the spider mites have been killed; 0% means that none of the spider mites have been killed.

[4] = tested on: Anopheles funestus strain FUMOZ-R; test: Anopheles test (ANPHFU surface treatment); details: Anopheles funestus, read-out: efficacy (mortality in %)
Procedure: Solvent: acetone+2000 ppm rapeseed oil methyl ester (RME)
To produce an appropriate active ingredient formulation, the active ingredient is dissolved in the solvent (2 mg/ml). The active ingredient formulation is pipetted onto a glazed tile and, after it has dried off, adult mosquitoes of the species Anopheles funestus strain FUMOZ-R (Hunt et al., Med Vet Entomol. 2005 September; 19(3):271-5) are placed onto the treated tile. The exposure time is 30 minutes.
24 hours after contact with the treated surface, mortality in % is determined 100% means that all mosquitoes have been killed; 0% means that none of the mosquitoes have been killed.

Cc1cc(C(F)(C(F)(F)F)C(F)(F)F)cc(C)c1-c1cn(-c2ccc(Cl)c(C(=O)NC3CC3)c2)nn1 [I-T48-1, 2-chloro-N-cyclopropyl-5-[4-[2,6-dimethyl-4-[1,2,2,2-tetrafluoro-1-(trifluoromethyl)ethyl]phenyl]triazol-1-yl]benzamide]
efficacy (no fertile eggs laid) (Boophilus microplus [1]): 100% | efficacy (kill in %) (Ctenocephalides felis): 100% | efficacy (dead or moribund) (Rhipicephalus sanguineus): 100% | efficacy (kill in %) (Amblyomma hebraeum): 100% | efficacy (no fertile eggs laid) [2]: 100% | efficacy (no fertile eggs laid) (Boophilus microplus [3]): 100% | efficacy (kill in %) (Lucilia cuprina): 100% | efficacy (caterpillars killed) (Spodoptera frugiperda): 100% | efficacy (spider mites killed) (Tetranychus urticae): 100% | mortality at 100 mg/m2 [4]: 90 to 100%
